From US20190094204A1, “MEMBRANE TRANSPORTER ASSAY AND METHODS OF USE” (Howard Hughes Medical Institute, priority 2017, published 2019)
Entries after “also recorded” stand apart in the source; their conditions may differ.

Assays:
EAAT2 [1] = molecular target: T1, EAAT2 (Homo sapiens, UniProt P43004); assay: OSTA of EAAT2-mediated glutamate transport (cytosolic iGluSnFR); assay type: cell-based; settings: for effect on EAAT2 activity (negative control): 10 mM sodium salicylate, same Na+/K+/glutamate stimulus
T1 construct: expressed in transfected cells; host or cells: HEK-293 (ATCC #CRL-1573)
T1 sequence (P43004 whole entry, species assumed, the tested form may be a part): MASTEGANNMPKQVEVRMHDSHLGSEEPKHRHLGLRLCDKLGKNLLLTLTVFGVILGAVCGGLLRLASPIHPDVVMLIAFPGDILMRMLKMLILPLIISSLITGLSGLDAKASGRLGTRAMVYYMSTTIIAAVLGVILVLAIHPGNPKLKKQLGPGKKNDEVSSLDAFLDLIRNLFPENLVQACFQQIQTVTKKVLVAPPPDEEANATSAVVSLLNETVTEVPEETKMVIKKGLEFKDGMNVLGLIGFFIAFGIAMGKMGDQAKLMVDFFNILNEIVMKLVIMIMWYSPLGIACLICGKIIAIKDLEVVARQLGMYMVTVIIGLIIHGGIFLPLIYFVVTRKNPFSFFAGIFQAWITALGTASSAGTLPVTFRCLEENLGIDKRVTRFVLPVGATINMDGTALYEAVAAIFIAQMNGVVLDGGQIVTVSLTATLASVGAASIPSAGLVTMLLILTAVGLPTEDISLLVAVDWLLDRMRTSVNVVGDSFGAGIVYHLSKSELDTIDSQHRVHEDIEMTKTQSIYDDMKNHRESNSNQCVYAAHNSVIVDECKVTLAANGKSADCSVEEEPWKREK

SLC26a3 = SLC26a3 (Homo sapiens, UniProt P40879); settings: washout after 10 mM salicylate; HEK-293 cells expressing SLC26a3
Sequence of SLC26a3 (P40879 whole entry, species assumed): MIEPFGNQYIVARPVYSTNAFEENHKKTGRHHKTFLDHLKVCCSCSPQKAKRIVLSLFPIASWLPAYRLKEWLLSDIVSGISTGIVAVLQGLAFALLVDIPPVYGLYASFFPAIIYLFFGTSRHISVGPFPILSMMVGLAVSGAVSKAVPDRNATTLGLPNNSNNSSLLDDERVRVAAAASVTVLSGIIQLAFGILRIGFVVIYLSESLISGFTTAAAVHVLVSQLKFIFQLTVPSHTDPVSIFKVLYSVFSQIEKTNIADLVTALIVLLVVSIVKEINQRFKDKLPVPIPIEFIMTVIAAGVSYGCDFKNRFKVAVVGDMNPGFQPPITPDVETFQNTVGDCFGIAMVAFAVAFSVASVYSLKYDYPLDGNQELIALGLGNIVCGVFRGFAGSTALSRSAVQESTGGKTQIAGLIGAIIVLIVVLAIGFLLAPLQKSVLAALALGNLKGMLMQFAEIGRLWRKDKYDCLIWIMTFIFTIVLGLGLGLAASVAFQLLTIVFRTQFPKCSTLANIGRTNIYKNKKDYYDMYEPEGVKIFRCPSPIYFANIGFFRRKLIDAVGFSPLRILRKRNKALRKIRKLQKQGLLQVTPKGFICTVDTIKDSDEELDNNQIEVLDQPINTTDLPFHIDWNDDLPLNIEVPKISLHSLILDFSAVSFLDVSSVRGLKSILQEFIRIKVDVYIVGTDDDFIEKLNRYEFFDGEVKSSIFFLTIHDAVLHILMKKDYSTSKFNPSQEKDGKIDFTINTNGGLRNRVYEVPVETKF

EAAT2 [2] = molecular target: T1, EAAT2; settings: EAAT2 inhibitor; Tsukada et al., 2005 Neuropharmacology 48:479-491; cited from earlier work

Row | onset and washout of EAAT2 inhibition (EAAT2 [1]; 2 μM TFB-TBOA) | SMILES | effect on EAAT2 activity (negative control) (EAAT2 [1]; HEK-293 cells) | effect on EAAT2 activity (negative control) (EAAT2 [1]; HEK-293 cells, listed as sodium salicylate) | oscillating response after washout (SLC26a3) | IC50 (EAAT2 [2]) | effect on EAAT2 glutamate oscillations (EAAT2 [1]; 2 μM TFB-TBOA, combined Na+/K+/glutamate stimulus (0-10 mM glutamate), HEK-293 cells)
1 |  | O=C([O-])c1ccccc1O.[Na+] [salicylate, sodium salicylate] | relative indifference | no effect on EAAT2 activity | return to the initial oscillating response |  | 
2 | rapid onset and slower washout | N[C@H](C(=O)O)[C@H](OCc1cccc(NC(=O)c2ccc(C(F)(F)F)cc2)c1)C(=O)O [TFB-TBOA] |  |  |  | ~17 nM | complete abrogation of oscillating signal; also recorded: completely abolished the oscillations
